Patent US8753673B2, “Liposome composition for delivery of a therapeutic agent to eyes” (Taiwan Liposome Co. Ltd., priority 2006, dated 2014)

Legend:
[1] = Bio-distribution of radioactivity in normal and CNV eyes of unilateral-CNV rats (γ scintillation counting after perfusion); format: in vivo, Brown Norway (BN) pigmented rats; settings: for specific radioactivity, CNV eye: CNV (right) eye; for specific radioactivity, CNV eye / specific radioactivity, normal eye: i.v. 250 μCi, means ± s.d.; for specific radioactivity, normal eye: normal (left) eye
Procedure: (§1) In the process of monitoring the behavior of these animals, 2 to 3 out of the 10 rats were unable to walk straight. This abnormal behavior might be related to vision loss of the right eye as the result of laser photocoagulation. There were no other noticeable side effects observed in these rats.
After the SPECT, all rats were sacrificed and perfused with normal saline containing 2 mM EDTA. Animals were dissected to isolate both normal (left) and CNV (right) eyes. The isolated eyes were weighted and radioactivity associated with the eyes was counted by a γ scintillation counter (Cobra II Autogamma, Packed, USA). The uptake of radiotracer in the eyes or other tissues was expressed in counts per minute (cpm) with decay correction and was normalized as percent of injection dose per gram tissue (% ID/g).
The experiment determines the biodistribution of In^111, a small molecular marker and In^111-encapsulated liposome, a lipid nano-particle in an experimental CNV model. Ten unilateral CNV rats were randomly divided into two groups with 4 and 6 rats, respectively. Group 1 received 250 μCi of In^111-DTPA and group 2 received 250 μCi of In^111-encapsulated liposome by intravenous injection.

[2] = Single-photon emission computed tomography (SPECT) imaging of unilateral-CNV rats; format: in vivo, Brown Norway (BN) pigmented rats; settings: 3, 24 and 48 hours after i.v. 250 μCi
Procedure: as §1
The SPECT imaging was carried out at 3, 24, and 48 hours after the injection of 250 μCi of either In^111-DTPA or In^111 encapsulated liposome. […] The center field of view was 25.4 cm^2 and a single energy centered window was used at […], with a width of 20%. A sequence of scans ([…]×6) was obtained over a period of 15 min. Images were reconstructed in a 128×128 (pixels) format from data with 32 projections distributed over 180° around the rat and a 40 s scan for each projection. The projections of each experiment were processed by reconstruction using filtered back projection, with a low-pass Butterworth filter of order 22.4 and cutoff frequency of 0.43. Each transverse image was reconstructed in a 128×128 array with a pixel size of 1.9×1.9 mm and a zoom of 2.0×.
The experiment determines the biodistribution of In^111, a small molecular marker and In^111-encapsulated liposome, a lipid nano-particle in an experimental CNV model. Ten unilateral CNV rats were randomly divided into two groups with 4 and 6 rats, respectively. […]

[3] = Fluorescein angiography (FAG) and visual observation of eyes in unilateral-CNV rats after i.v. injection; settings: normal and CNV eyes, visual observation up to 24 hours
Procedure: Brown Norway (BN) pigmented rats, weighing between 200 and 250 gram, were anesthetized with intramuscular injection of 0.15 ml/kg of an equal-volume mixture of 2% lidocaine (Xylocalne; Astra, Astra Södertalje, Sweden) and 50 mg/mL ketamine (Ketalar; Parke-Davis, Morris Plains, N.J.). After anesthetizing, the right pupils were dilated with 1% tropicamide (1% Mydriacyl; Alcon Laboratories, Watford, UK). A small piece of transparent sheet (3M, Minneapolis, Minn.) approximately 3 mm in diameter was attached to the cornea by sodium hyaluronidase (Healon; Pharmacia and Upjohn, Inc., Kalamazoo, Mich.) to serve as a contact lens. Krypton laser (Novus Omni; Coherent, Palo Alto, Calif.) irradiation was delivered through a slit lamp (Carl Zeiss, Oberkochen, Germany). Laser parameters used were as follows: spot size of 100 mm, power of 120 to 160 mW, and exposure duration of 0.1 second. […] CNV was evaluated on day 14 by opthalmoscopy, fundus photography, and conventional fluorescein angiography (FAG) modified from (DiLoreto D, Grover D A, Del Cerro C. (1994) Curr Eye Res. 13, 157-61).
Fluorescein sodium (10%; 0.1 ml/kg; Fluorescite™; Alcon, Fort Worth, Tex.) was injected through the tail vein of the anesthetized rats 14 days after laser photocoagulation. The CNV lesions were recorded with a digital fundus camera (Retinal Angiography; Heidelberg Engineering, Heidelberg, Germany). […]

SMILES	difference in specific radioactivity between the normal and CNV eyes ([1]; 24 and 48 hours post-injection)	specific radioactivity, CNV eye ([1]; 24 hours post injection)	specific radioactivity, CNV eye ([1]; 48 hours post injection)	specific radioactivity, normal eye ([1]; 24 hours post injection)	specific radioactivity, normal eye ([1]; 48 hours post injection)	accumulation of radioactivity in eyes on SPECT images [2]	visual appearance (colour) of the eyes after i.v. administration [3]
O=C([O-])CN(CCN(CC(=O)[O-])CC(=O)[O-])CCN(CC(=O)[O-])CC(=O)[O-].[111In+3].[H+].[H+] [In^111-DTPA]	no difference	0.14 ± 0.09 % ID/g	0.13 ± 0.05 % ID/g	0.16 ± 0.04 % ID/g	0.14 ± 0.06 % ID/g	did not show any In^111 accumulation in both normal and CNV eyes even at 3 hours	
O=C1OC2(c3ccc(O)cc3Oc3cc(O)ccc32)c2ccccc21 [fluorescein sodium, Fluorescein sodium]							greenish color quickly disappeared within an hour
